From ChEMBL document CHEMBL1201862, “PubChem BioAssay data set” (2004)
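Protocol summary: plate cells (96-well), add compound at 5 concentrations, incubate 48 h, interpolate endpoints linearly. The concentration for 50% growth inhibition is given as GI50.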 Active and inactive are the calls of the source. Cut-off read from the data, not from the text of the source: active = GI50 up to about 1.1 µM and inactive = higher.

Assays:
Assay in all cases: DTP human tumour cell line panel, 48 h
SW-620 = test system: SW-620
NCI-H23 = test system: NCI-H23
U-251 = test system: U-251
MDA-MB-435 = test system: MDA-MB-435
MOLT-4 = test system: MOLT-4
HCC 2998 = test system: HCC 2998
NCI/ADR-RES = test system: NCI/ADR-RES
OVCAR-4 = test system: OVCAR-4
BT-549 = test system: BT-549
HCT-116 = test system: HCT-116
OVCAR-8 = test system: OVCAR-8
PC-3 = test system: PC-3
A549 = test system: A549
IGROV-1 = test system: IGROV-1
SK-MEL-2 = test system: SK-MEL-2
SNB-75 = test system: SNB-75
HL-60 = test system: HL-60
CCRF-CEM = test system: CCRF-CEM
NCI-H460 = test system: NCI-H460

Structure (SMILES)	GI50 (SW-620)	GI50 (NCI-H23)	GI50 (U-251)	GI50 (MDA-MB-435)	GI50 (MOLT-4)	GI50 (HCC 2998)	GI50 (NCI/ADR-RES)	GI50 (OVCAR-4)	GI50 (BT-549)	GI50 (HCT-116)	GI50 (OVCAR-8)	GI50 (PC-3)	GI50 (A549)	GI50 (IGROV-1)	GI50 (SK-MEL-2)	GI50 (SNB-75)	GI50 (HL-60)	GI50 (CCRF-CEM)	GI50 (NCI-H460)
CC(=O)Nc1ccc(-c2nc3ccccc3s2)cc1Cl	> 100 µM (inactive)	51.4 µM (inactive)	> 84.1 µM (inactive)	> 100 µM (inactive)	> 83.4 µM (inactive)	0.23 µM (active)	> 86.9 µM (inactive)	> 100 µM (inactive)	> 75.9 µM (inactive)	58.7 µM (inactive)	66.5 µM (inactive)	> 100 µM (inactive)	99.8 µM (inactive)	< 0.0217 µM (active)	> 100 µM (inactive)	36.7 µM (inactive)	> 100 µM (inactive)	> 100 µM (inactive)	
Nc1ccc(-c2ccc(Nc3cc(S(=O)(=O)O)c(N)c4c3C(=O)c3ccccc3C4=O)cc2)c(S(=O)(=O)O)c1	> 100 µM (inactive)	> 100 µM (inactive)	> 100 µM (inactive)	> 100 µM (inactive)	41.8 µM (inactive)	> 100 µM (inactive)	> 100 µM (inactive)	> 100 µM (inactive)	> 100 µM (inactive)	> 100 µM (inactive)	> 100 µM (inactive)	> 100 µM (inactive)	> 100 µM (inactive)	> 100 µM (inactive)	> 100 µM (inactive)	> 100 µM (inactive)	> 100 µM (inactive)	> 100 µM (inactive)	> 100 µM (inactive)
c1ccc(CSP234N5CCN2CCN3CCN4CC5)c(CSP234N5CCN2CCN3CCN4CC5)c1	> 100 µM (inactive)	> 100 µM (inactive)	> 100 µM (inactive)	> 100 µM (inactive)	65.2 µM (inactive)	> 100 µM (inactive)	> 100 µM (inactive)	> 100 µM (inactive)	> 100 µM (inactive)	> 100 µM (inactive)	> 100 µM (inactive)	> 100 µM (inactive)	> 100 µM (inactive)	> 100 µM (inactive)	> 100 µM (inactive)	28.3 µM (inactive)	3.65 µM (inactive)	45.4 µM (inactive)	> 100 µM (inactive)
N#CC(C#N)=CNC(=S)c1ccncc1	64.9 µM (inactive)	> 100 µM (inactive)	> 100 µM (inactive)	> 100 µM (inactive)	64.3 µM (inactive)	59.8 µM (inactive)	> 100 µM (inactive)	> 100 µM (inactive)	11.2 µM (inactive)	53.6 µM (inactive)	> 100 µM (inactive)	> 100 µM (inactive)	> 100 µM (inactive)	69.5 µM (inactive)	> 100 µM (inactive)	35.4 µM (inactive)	48.1 µM (inactive)	34.5 µM (inactive)	> 100 µM (inactive)
CCCCCCCC(=O)OC[n+]1ccc(-c2c(COC(=O)NC(C)C)c(COC(=O)NC(C)C)c3n2CCC3)cc1	23.2 µM (inactive)	35.2 µM (inactive)	51.5 µM (inactive)	69 µM (inactive)	13.3 µM (inactive)	> 100 µM (inactive)	53.8 µM (inactive)	38.6 µM (inactive)	> 52.7 µM (inactive)	25.5 µM (inactive)	43.1 µM (inactive)	> 65.2 µM (inactive)	63.8 µM (inactive)	31 µM (inactive)	22.1 µM (inactive)	42.3 µM (inactive)	14.8 µM (inactive)	13.5 µM (inactive)	21.4 µM (inactive)
Cc1cccc2c(N)c3cccc(C(=O)NCCNCCN)c3nc12	8.02 µM (inactive)	0.598 µM (active)	0.736 µM (active)	18.7 µM (inactive)	0.0649 µM (active)	6.79 µM (inactive)	27.9 µM (inactive)	2.67 µM (inactive)	14.6 µM (inactive)	2.52 µM (inactive)	0.995 µM (active)	10.8 µM (inactive)	0.203 µM (active)	5.01 µM (inactive)	13 µM (inactive)	0.631 µM (active)	8.83 µM (inactive)	0.448 µM (active)	0.558 µM (active)
COc1ccccc1NC(=S)N/N=C/c1c(C)n(C)n(-c2ccccc2)c1=O	91.8 µM (inactive)	> 100 µM (inactive)	> 100 µM (inactive)	34.6 µM (inactive)	41.5 µM (inactive)	> 100 µM (inactive)	21.1 µM (inactive)	> 100 µM (inactive)	> 100 µM (inactive)	> 100 µM (inactive)	56.9 µM (inactive)	> 100 µM (inactive)		> 100 µM (inactive)	> 100 µM (inactive)	49 µM (inactive)	> 100 µM (inactive)	> 100 µM (inactive)	> 100 µM (inactive)
COc1ccc(CCNC(=O)CCCCCO)cc1OC	> 100 µM (inactive)	> 100 µM (inactive)	> 100 µM (inactive)	> 100 µM (inactive)	> 100 µM (inactive)	> 100 µM (inactive)	> 100 µM (inactive)	> 100 µM (inactive)	> 100 µM (inactive)	> 100 µM (inactive)	> 100 µM (inactive)	> 100 µM (inactive)	> 100 µM (inactive)	> 100 µM (inactive)	> 100 µM (inactive)	> 100 µM (inactive)	> 100 µM (inactive)	> 100 µM (inactive)	> 100 µM (inactive)
NC(CSCc1ccc(I)cc1)C(=O)O (stereo not given)	> 100 µM (inactive)	> 100 µM (inactive)	> 100 µM (inactive)	> 100 µM (inactive)	> 100 µM (inactive)	> 100 µM (inactive)	> 100 µM (inactive)	> 100 µM (inactive)	> 100 µM (inactive)	> 100 µM (inactive)	> 100 µM (inactive)	> 100 µM (inactive)	> 100 µM (inactive)	> 100 µM (inactive)	> 100 µM (inactive)	> 100 µM (inactive)	> 100 µM (inactive)	> 100 µM (inactive)	> 100 µM (inactive)
Cc1ccnc(NC(=S)Nc2ccc([N+](=O)[O-])cc2)c1	> 100 µM (inactive)	> 100 µM (inactive)	49 µM (inactive)	> 100 µM (inactive)	> 100 µM (inactive)	> 100 µM (inactive)	56.5 µM (inactive)	> 100 µM (inactive)	> 100 µM (inactive)	> 100 µM (inactive)	35.5 µM (inactive)	> 100 µM (inactive)		46.2 µM (inactive)	> 100 µM (inactive)	44.6 µM (inactive)	> 100 µM (inactive)	> 100 µM (inactive)	80.5 µM (inactive)
OCC1OC(n2nc(-c3ccccc3)nc2-c2cnccn2)C(O)C1O (stereo not given)	> 100 µM (inactive)	> 100 µM (inactive)	> 100 µM (inactive)	> 100 µM (inactive)	> 100 µM (inactive)	> 100 µM (inactive)	> 100 µM (inactive)	> 100 µM (inactive)	> 100 µM (inactive)	> 100 µM (inactive)	> 100 µM (inactive)	> 100 µM (inactive)	> 100 µM (inactive)	> 100 µM (inactive)		> 100 µM (inactive)	> 100 µM (inactive)	> 100 µM (inactive)	> 100 µM (inactive)
O=C(/C=C\c1ccsc1)c1ccccc1	2.91 µM (inactive)	5.7 µM (inactive)	3.78 µM (inactive)	10.6 µM (inactive)	2.94 µM (inactive)	9.44 µM (inactive)	12.3 µM (inactive)	3.94 µM (inactive)	12.6 µM (inactive)	3.85 µM (inactive)	8.99 µM (inactive)	11.1 µM (inactive)		6.9 µM (inactive)	16.7 µM (inactive)	10.1 µM (inactive)	0.182 µM (active)		11.4 µM (inactive)
COc1ccc(OC)c(N2C(=O)/C(=C\c3ccccc3)SC2c2cc(OC)c(OC)c(OC)c2)c1 (stereo not given)	46.6 µM (inactive)	> 80.5 µM (inactive)	> 100 µM (inactive)	26.5 µM (inactive)	52.6 µM (inactive)	> 100 µM (inactive)	> 71.3 µM (inactive)	> 91.8 µM (inactive)	68.4 µM (inactive)	> 100 µM (inactive)	> 100 µM (inactive)	> 89.5 µM (inactive)	> 85.7 µM (inactive)	29.8 µM (inactive)	> 100 µM (inactive)	26.2 µM (inactive)	58.9 µM (inactive)	49.5 µM (inactive)	
O=C(/C=C1\C[C@H]2C=Nc3ccccc3C(=O)N2C1)NCCCNC(=O)/C=C1\C[C@H]2C=Nc3ccccc3C(=O)N2C1	5.51 µM (inactive)	15.5 µM (inactive)	13.6 µM (inactive)	19.1 µM (inactive)	2.62 µM (inactive)	20.2 µM (inactive)	23.3 µM (inactive)	18.2 µM (inactive)	16.4 µM (inactive)	16 µM (inactive)	18.6 µM (inactive)	17.6 µM (inactive)	21.1 µM (inactive)	17.3 µM (inactive)	19.3 µM (inactive)	16.2 µM (inactive)	8.73 µM (inactive)		18.6 µM (inactive)
COc1ccc(-n2c(C)nc3ccc(NC4OC(CO)C(O)C(O)C4O)cc3c2=O)cc1 (stereo not given)	> 100 µM (inactive)	> 100 µM (inactive)	> 100 µM (inactive)	> 100 µM (inactive)	> 100 µM (inactive)	> 100 µM (inactive)	> 100 µM (inactive)	> 100 µM (inactive)	> 100 µM (inactive)	> 100 µM (inactive)	> 100 µM (inactive)	> 100 µM (inactive)		> 100 µM (inactive)	97.5 µM (inactive)	> 100 µM (inactive)	> 100 µM (inactive)		> 100 µM (inactive)
